Results taken from ChEMBL document CHEMBL1126941, “Synthesis and evaluation of unsymmetrically substituted polyamine analogues as modulators of human spermidine/spermine-N1-acetyltransferase (SSAT) and as potential antitumor agents” (1993).

Columns and labels:
Type in all cases: functional, Homo sapiens
SCLC [1] = assay: Tested for induction of SSAT activity in H82 SCLC cells following treatment with 10 uM BESpm
LCLC = assay: Tested for induction of SSAT activity in H157 LCLC cells following treatment with 10 uM of the BESpm
SCLC [2] = assay: Tested for induction of SSAT activity in H82 SCLC cells following treatment with 10 uM of the BESpm

For `Br.Br.Br.Br.CCNCCCNCCCCNCCCNCC`, the SSAT (SCLC [1]) was 22.7 pmol/min/mg and the SSAT (LCLC) was 38300 pmol/min/mg.
For `Br.Br.Br.Br.C#CCNCCCNCCCNCCCNCC`, the SSAT (LCLC) was 19100 pmol/min/mg and the SSAT (SCLC [2]) was 19.8 pmol/min/mg.
Work on `Br.Br.Br.Br.CCNCCCNCCCNCCCNCC1CC1` yielded an SSAT (LCLC) of 42800 pmol/min/mg and an SSAT (SCLC [2]) of 47.1 pmol/min/mg.
